# According to US12569437B2, “Disease-site-specific liposomal formulation” (Osaka University, priority 2017, dated 2026):
# Marks after values point to notes of the source that are not given here.
# Key:
# Assay type in all cases: in vivo
# [1] = system: rat monocrotaline (MCT)-induced severe heart failure (pulmonary hypertension) model; assay: Survival rate in rat monocrotaline-induced pulmonary hypertension model; details: 42 days after MCT
# Text: The produced Formulation 21 (ONO-1301Lipo formulation) as a test substance was intermittently administered intravenously once weekly to a rat monocrotaline (MCT)-induced severe heart failure (pulmonary hypertension) model from day 7 of the MCT administration, and the survival rate was compared with a group in which compound (A) (ONO-1301) was repeatedly orally administered; a group in which compound (A) was intermittently administered intravenously once weekly; and, as a positive control, a group in which an ET-1 antagonist (bosentan) was orally administered. In the control group, physiological saline (vehicle) was administered once weekly by intravenous administration.
# For animals, Slc: Wistar male rats, 5 weeks old at the start of the test, and 66.4 to 90.8 g at arrival (Japan SLC, Inc.) were used. Monocrotaline (hereinafter referred to as “MCT”), lot No.: SLBG1999V (Sigma-Aldrich Corporation), was administered once subcutaneously at the back of the rats at a dose of 60 mg/kg. Six days after the MCT administration, the animals were divided into groups according to the weight stratification assignment method (Table 19).
# [2] = system: rat model of ischemia by complete coronary artery ligation; assay: Echocardiography (EF %, % FS) in rat model of ischemia by complete coronary artery ligation
# Experimental: An improvement in the cardiac function against ischemic heart disease and an effect of preventing death from heart failure by intermittent intravenous administration of Formulation 25 (ONO-1301Lipo) or compound (A) (ONO-1301) were analyzed by using the left ventricular ejection fraction (hereinafter referred to as “EF %”), left ventricular fractional shortening (hereinafter referred to as “% FS”), and histological evaluation, based on echocardiography, as indices.
# Male Sprague-Dawley rats (CLEA Japan, Inc., 6 weeks old when arrived) were anesthetized with a liquid mixture of 0.5 mg/kg of midazolam (Dormicum Injection 10 mg, Astellas Pharma Inc.) and 2 mg/kg of xylazine (Celactal 2% injection, Bayer Japan Ltd.). Thereafter, the animal tail veins were secured, and Propofol (1% Diprivan Injection; AstraZeneca K.K.) was continuously infused at 6 to 10 mg/kg/hr with a syringe pump (Terufusion TE-3310N; Terumo Corporation) to maintain deep anesthesia. Thereafter, a tracheal cannula (a cut-down catheter with an outside diameter of 2.0 mm, produced by JMS Co., Ltd.) was inserted and indwelled, and a respirator (for small animals; Shinano Seisakusho) was connected to maintain breathing at a stroke volume of 1 mL/100 g/stroke (±1 mL) and a stroke rate of 70 times/min (±10 times). Thereafter, the animals were fixed in a recumbent position from a dorsal fixed position so that the left chest faced upward, and the epidermis and muscle layer between the third to fourth or fourth to fifth ribs were incised with a surgical knife. After confirming that the knife reached the thoracic cavity, the intercostal space was widened with a rib spreader, and a state in which the anterior descending branch (hereinafter referred to as “LAD”) from the left atrial appendage was directly visible at the front was secured.
# Thereafter, the translucent thin pericardium was removed with tweezers to expose the myocardium. Thereafter, the LAD located at the margin of the left atrial appendage was pierced and secured with a nylon thread with a 6-0 or 7-0 needle at a depth of 2 to 3 mm using a microneedle holder, and the LAD was completely ligated. Thereafter, the muscle layer and epidermis were sutured and closed with a 4-0 or 5-0 nylon thread. After the chest was closed, 50 mg of cefamedin was subcutaneously administered to the treatment site, and the treatment was terminated.
# Echocardiography was performed to confirm the cardiac function improving effect of the test substances using the left ventricular ejection fraction (hereinafter referred to as “EF %”) as an index.
# The test was performed 23 hours after the preparation of the model (test for grouping), the animals whose EF % value decreased by 25% or more of that of normal animals were selected, grouping was performed, and a solution for administration of the test substances was administered by tail vein intravenous administration 24 hours after the preparation of the model. Thereafter, echocardiography was performed 7 and 14 days after the test substance administration.
# [3] = system: spontaneous dilated cardiomyopathy (J2N-k) hamster model; assay: Echocardiography (EF %, % FS) in spontaneous dilated cardiomyopathy hamsters; details: for % FS Pre / EF % Pre: at grouping; for % FS 4 W / EF % 4 W: week 4; for % FS 8 W / EF % 8 W: week 8
# Experimental: Improvement in the DDS cardiac function in the spontaneous dilated cardiomyopathy (J2N-k) hamster model by intermittent intravenous administration of Formulation 25 and compound (A) (ONO-1301) once every two weeks was evaluated by comparing the left ventricular ejection fraction (hereinafter referred to as “EF %”), left ventricular fractional shortening (hereinafter referred to as “% FS”), and histological evaluation, based on echocardiography, taken as indices. As a positive control, a group in which compound (A) (ONO-1301) was repeatedly orally administered twice daily was created.
# As a test substance, Formulation 25 was used by suspending and diluting with physiological saline. Compound (A) (ONO-1301) as a control was used by dissolving in an equivalent amount of aqueous NaOH, and diluting with physiological saline. For groups of oral administration of compound (A) (ONO-1301), administration was performed as a suspension in a 0.5% CMC-Na aqueous solution.
# The spontaneous dilated cardiomyopathy (J2N-k) male hamsters, 20 weeks old at the start of administration, Japan SLC, Inc., were administered with the test substances for 8 weeks, and used for comparison.
# Animals arrived at the age of 18 weeks were subjected to a 2-week quarantine/acclimation period, and then to the test at the time of grouping (test start date) at the age of 20 weeks. Thereafter, tests were conducted 4 and 8 weeks after the test start date, and dissection was performed 8 weeks after the test start date.
# Echocardiography was performed at the time of grouping, and at week 4 and week 8 after the start of administration. The measurement was performed 3 times for each individual, and the average value of the measured data was referred to as the measurement results.
# [4] = 3.0 mg/kg single i.v. 24 hours after infarction, day 7
# [5] = 3.0 mg/kg single i.v. 24 hours after infarction, day 14
# [6] = group 3.0 mg/kg single i.v., 23 hours after LAD ligation, before administration
# [7] = 3.0 mg/kg intravenous once/2 weeks
smiles,measurement,setting,value
"O=C(O)COc1cccc2c1CCC=C2CCO/N=C(\c1ccccc1)c1cccnc1 [Compound (A), ({5-[2-({[(1E)-phenyl(pyridin-3-yl)methylene]amino}oxy)ethyl]-7,8-dihydronaphthalen-1-yl}oxy)acetic acid]",Survival rate (%),[1]; intravenous 1 mg/kg/week from day 7,20%
same,Survival rate (%),[1]; oral 3 mg/kg × twice/day from day 7,50* %
same,% FS 1 W,[2]; [4],25.4 ± 5.6%
same,EF % 1 W,[2]; [4],54.6 ± 8.8%
same,% FS 2 W,[2]; [5],24.5 ± 4.4%
same,EF % 2 W,[2]; [5],53.2 ± 7.1%
same,% FS Pre,[2]; [6],26.5 ± 3.7 %
same,EF % Pre,[2]; [6],56.7 ± 5.5 %
same,% FS Pre,[3]; [7],16.0 ± 2.1%
same,EF % Pre,[3]; [7],38.8 ± 4.3%
same,% FS 4 W,[3]; [7],16.1 ± 3.1%
same,EF % 4 W,[3]; [7],35.7 ± 7.4%
same,% FS 8 W,[3]; [7],12.3 ± 1.3^a %
same,EF % 8 W,[3]; [7],30.8 ± 2.9^a %
same,% FS Pre,[3]; 3.0 mg/kg p.o. twice/day,18.2 ± 3.9%
same,EF % Pre,[3]; 3.0 mg/kg p.o. twice/day,43.0 ± 7.8%
same,% FS 4 W,[3]; 3.0 mg/kg p.o. twice/day,17.2 ± 7.2%
same,EF % 4 W,[3]; 3.0 mg/kg p.o. twice/day,40.4 ± 14.9%
same,% FS 8 W,[3]; 3.0 mg/kg p.o. twice/day,17.1 ± 4.5 %
same,EF % 8 W,[3]; 3.0 mg/kg p.o. twice/day,40.3 ± 9.2 %
